Drawing on patent US5387684A, “Isoindazole compound” (The Green Cross Corporation, priority 1992, dated 1995), this text covers IC50 for 16 molecules.

Molecules are shown by their SMILES. Structures can show the parent of a compound that is named as a salt.

In this test the target is T1, angiotensin II receptor (Rattus norvegicus, UniProt P25095).
T1 sequence (P25095 1-359): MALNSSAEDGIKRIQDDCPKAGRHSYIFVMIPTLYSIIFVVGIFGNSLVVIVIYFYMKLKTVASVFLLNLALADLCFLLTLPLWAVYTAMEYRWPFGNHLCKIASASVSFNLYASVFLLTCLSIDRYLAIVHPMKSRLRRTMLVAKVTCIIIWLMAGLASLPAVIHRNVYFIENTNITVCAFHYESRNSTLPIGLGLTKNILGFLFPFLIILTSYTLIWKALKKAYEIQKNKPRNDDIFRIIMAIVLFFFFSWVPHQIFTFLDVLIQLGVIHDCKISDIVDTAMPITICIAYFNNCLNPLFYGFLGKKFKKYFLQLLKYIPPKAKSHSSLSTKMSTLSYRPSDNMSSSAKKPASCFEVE
The experiment in a line: Inhibition of binding of angiotensin II to rat smooth muscle cells (125I-AII). The settings on record: ^125 I-Tyr^4-angiotensin II, smooth muscle cells from rat aorta, room temperature, 1 hour; read-out: inhibitory action (IC50) on the binding of angiotensin II to the receptor.
Usually IC50 stands for the concentration at which inhibition is half-maximal. With `CCc1nc2c(C)cc(C)nc2n1Cc1ccc2nn(-c3ccccc3C(=O)O)c(Br)c2c1`, the IC50 was determined as 2 nM.

For `CCCCc1nc(Cl)c(CO)n1Cc1ccc2nn(-c3ccccc3C(=O)O)c(Br)c2c1` [Example 4, 1-[3-bromo-2-(2-carboxyphenyl)-2H-indazol-5-yl]methyl-2-butyl-4-chloro-5-(hydroxymethyl)-1H-imidazole], the IC50 was found to be 4.3 nM.

For `CCCCc1nc(Cl)c(CO)n1Cc1ccc2nn(-c3ccccc3C(=O)O)cc2c1` [Example 5, 2-butyl-4-chloro-1-[2-(2-carboxyphenyl)-2H-indazol-5-yl]methyl-5-(hydroxymethyl)-1H-imidazole], the IC50 amounted to 40 nM. With `CCCCc1nc(Cl)c(C=O)n1Cc1ccc2nn(-c3ccccc3C(=O)O)c(Br)c2c1` [Example 6, 2-butyl-4-chloro-1-[3-bromo-2-(2-carboxyphenyl)-2H-indazol-5-yl]methyl-1H-imidazole-5-carbaldehyde] the figure was 19 nM; with `CCCCc1nc(Cl)c(C=O)n1Cc1ccc2nn(-c3ccccc3C(=O)O)cc2c1` [Example 7, 2-butyl-4-chloro-1-[2-(2-carboxyphenyl)-2H-indazol-5-yl]methyl-1H-imidazole-5-carbaldehyde], 130 nM; with `CCCCc1nc(Cl)c(C(=O)O)n1Cc1ccc2nn(-c3ccccc3C(=O)O)c(Br)c2c1` [Example 9, disodium 1-[3-bromo-2-(2-carboxyphenyl)-2H-indazol-5-yl]methyl-2-butyl-4-chloro-1H-imidazole-5-carboxylate], 2.5 nM. On to `CCCCc1nc(C(=O)O)c(Cl)n1Cc1ccc2nn(-c3ccccc3C(=O)O)c(Br)c2c1` [Example 10, disodium 2-butyl-5-chloro-1-[3-bromo-2-(2-carboxyphenyl)-2H-indazol-5-yl]methyl-1H-imidazole-4-carboxylate], for which the IC50 came out at 720 nM.

With `CCCCc1nc(Cl)c(C=O)n1Cc1ccc2nn(-c3ccccc3-c3nnn[nH]3)c(Br)c2c1` [Example 12, 1-{[3-bromo-2-[2-(1H-tetrazol-5-yl)phenyl]-2H-indazol-5-yl]methyl}-2-butyl-4-chloro-1H-imidazole-5-carbaldehyde], the IC50 was 60 nM.

With `CCCCc1nc(Cl)c(CO)n1Cc1ccc2nn(-c3ccccc3-c3nnn[nH]3)c(Br)c2c1` [Example 14, 1-{[3-bromo-2-[2-(1H-tetrazol-5-yl)phenyl]-2H-indazol-5-yl]methyl}-2-butyl-4-chloro-5-(hydroxymethyl)-1H-imidazole], the IC50 came to 2.5 nM. As for `CCCc1nc2c(C)ccnc2n1Cc1ccc2nn(-c3ccccc3C(=O)O)c(Br)c2c1` [Example 20, 3-[3-bromo-2-(2-carboxyphenyl)-2H-indazol-5-yl]-methyl-7-methyl-2-propyl-3H-imidazo[4,5-b]pyridine], the IC50 amounted to 1.4 nM. With `CCc1nc2c(C)cc(C)nc2n1Cc1ccc2nn(-c3ccccc3-c3nnn[nH]3)c(Br)c2c1` [Example 21, 3-{[3-bromo-2-[2-(1H-tetrazol-5-yl)phenyl]-2H-indazol-5-yl]methyl}-2-ethyl-5,7-dimethyl-3H-imidazo[4,5-b]pyridine] the figure was 1.1 nM; with `CCCc1nc2c(C)ccnc2n1Cc1ccc2nn(-c3ccccc3-c3nnn[nH]3)c(Br)c2c1` [Example 22, 3-{[3-bromo-2-[2-(1H-tetrazol-5-yl)phenyl]-2H-indazol-5-yl]methyl}-7-methyl-2-propyl-3H-imidazo[4,5-b]pyridine], 1.8 nM; with `CCCCc1nc2cccnc2n1Cc1ccc2nn(-c3ccccc3-c3nnn[nH]3)c(Br)c2c1` [Example 23, 3-{[3-bromo-2-[2-(1H-tetrazol-5-yl)phenyl]-2H-indazol-5-yl]methyl}-2-butyl-3H-imidazo[4,5-b]pyridine], 3.1 nM.

For `CCc1nc2c(C)cc(C)nc2n1Cc1ccc2nn(-c3ccccc3-c3nnn[nH]3)c(Cl)c2c1` [Example 24, 3-{[3-chloro-2-[2-(1H-tetrazol-5-yl)phenyl]-2H-indazol-5-yl]methyl}-2-ethyl-5,7-dimethyl-3H-imidazo[4,5-b]pyridine], the IC50 turned out to be 0.8 nM. Turning to `CCc1nc2c(C)cc(C)nc2n1Cc1ccc2nn(-c3cccc(Cl)c3-c3nnn[nH]3)c(Br)c2c1` [Example 25, 3-{[3-bromo-2-[3-chloro-2-(1H-tetrazol-5-yl)-phenyl]-2H-indazol-5-yl]methyl}-2-ethyl-5,7-dimethyl-3H-imidazo[4,5-b]pyridine], the IC50 is 0.72 nM. Turning to `CCCCc1nc2cccnc2n1Cc1ccc2nn(-c3ccccc3C(=O)O)c(Br)c2c1` [sodium salt], the IC50 stood at 6.7 nM.
